Test results reported in ChEMBL document CHEMBL1147475, “2-Alkyl-4-arylimidazoles: structurally novel sodium channel modulators” (Bioorg Med Chem Lett, 2004).

What was measured:
[1] = target: Sodium channel alpha subunits; brain (Types I, II, III) (Rattus norvegicus, UniProt P04775+P04774+P08104); test: Concentration required to inhibit [3H]BTX binding to Sodium channel of rat brain
SH-SY5Y = test: Cytoprotection of SH-SY5Y cells against veratridine-induced cytotoxicity; assay type: functional, cell-based; settings: Homo sapiens

Row | SMILES | IC50 [1] | IC50 (SH-SY5Y)
1 | c1ccc(-c2c[nH]c([C@H]3Cc4c([nH]c5ccccc45)[C@@H](c4ccccc4)N3)n2)cc1 | 1460 nM | 
2 | CCCCCCc1nc(-c2ccc(CC(C)C)cc2)c[nH]1 | 28 nM | 380 nM
3 | Nc1nnc(-c2cccc(Cl)c2Cl)c(N)n1 [LAMOTRIGINE] | 31000 nM | 
4 | CCN(CC)CC(=O)Nc1c(C)cccc1C [LIDOCAINE] | 56000 nM | 
5 | CCCCCC(CCCCC)c1nc(-c2ccccc2)c[nH]1 | 86 nM | 
6 | CCCC(CCC)c1nc(-c2ccc(F)cc2)c[nH]1 | 518 nM | 
7 | CCCC(CCC)c1nc(-c2ccc(-c3ccccc3)cc2)c[nH]1 | 100 nM | 
8 | NC(=O)N1c2ccccc2C=Cc2ccccc21 [CARBAMAZEPINE] | 167000 nM | 
9 | CCCC(CCC)c1nc(-c2ccc(C(C)(C)C)cc2)c[nH]1 | 30 nM | 430 nM
10 | CCCCCC(CCCCC)c1nc(-c2ccc(-c3ccccc3)cc2)c[nH]1 | 8 nM | 810 nM
11 | CCCC(CCC)c1nc(-c2ccc(-c3ccc(Br)cc3)cc2)c[nH]1 | 322 nM | 
12 | CCCCCC(CCCCC)c1nc(-c2ccc(F)cc2)c[nH]1 | 25 nM | 770 nM

Continued, in another order:

Row | IC50 [1] | SMILES | IC50 (SH-SY5Y)
13 | 1460 nM | Cc1nc(-c2ccc(-c3ccccc3)cc2)c[nH]1 | 
14 | 146 nM | Fc1ccc(-c2c[nH]c(CC3CCCCC3)n2)cc1 | 
15 | 70 nM | c1ccc(-c2ccc(-c3c[nH]c(CC4CCCCC4)n3)cc2)cc1 | 
16 | 26 nM | c1ccc(-c2ccc(-c3c[nH]c(CCC4CCCCC4)n3)cc2)cc1 | 760 nM
17 | 16 nM | CCCCCCc1nc(-c2ccc(-c3ccccc3)cc2)c[nH]1 | 450 nM
18 | 19 nM | c1ccc(-c2ccc(-c3c[nH]c(CCCC4CCCCC4)n3)cc2)cc1 | 1000 nM
